Test results published in EP1295874A2, “Retroviral protease inhibiting compounds” (Abbott Laboratories, priority 1995, dated 1997).

Columns and labels:
Test in all cases: microbe, parasite or virus in culture
Type in all cases: cell-based
[1] = system: Ritonavir-Resistant HIV from Patients
[2] = system: HIV Selected In Vitro by the Compound of Example 2B
[3] = system: Ritonavir-Resistant Mutant HIV Clones

Q: What does the source list for `CC(C)c1nc(CN(C)C(=O)N[C@H](C(=O)N[C@@H](Cc2ccccc2)C[C@H](O)[C@H](Cc2ccccc2)NC(=O)OCc2cncs2)C(C)C)cs1` [Ritonavir]?
A: EC50 ([1]; Human immunodeficiency virus 1, 24 h, Patient No. 313, Day 1, baseline): 12 nM; EC50 ([1]; Human immunodeficiency virus 1, 24 h, Patient No. 410, Day 1, baseline): 29 nM; EC50 ([1]; Human immunodeficiency virus 1, 504 h, Patient No. 104, Day 21, V82A): 46 nM; EC50 ([1]; Human immunodeficiency virus 1, 672 h, Patient No. 104, Day 28, V82T): 67 nM; EC50 ([1]; Human immunodeficiency virus 1, Patient No. 104, Day -1, baseline): 21 nM; EC50 ([1]; Human immunodeficiency virus 1, Patient No. 129, Day 84, M36I, I54V, A71V, V82T): 203 nM; EC50 ([1]; Human immunodeficiency virus 1, Patient No. 129, Day 140, K20K/R, M36M/I, I54V, A71A/V, V82T): 677 nM; EC50 ([1]; Human immunodeficiency virus 1, Patient No. 129, Day -1, baseline): 24 nM; EC50 ([1]; Human immunodeficiency virus 1, Patient No. 131, Day 88, M36I, 154V>I, V82A): 163 nM; EC50 ([1]; Human immunodeficiency virus 1, Patient No. 131, Day 200, K20K/R, M36I, I54I/V, V82A): 731 nM; EC50 ([1]; Human immunodeficiency virus 1, Patient No. 131, Day -28, baseline): 18 nM; EC50 ([1]; Human immunodeficiency virus 1, Patient No. 224, Day 110, L33L/F, V82T/S): 79 nM; EC50 ([1]; Human immunodeficiency virus 1, Patient No. 224, Day 190, K20K/N/R, L33L/F, M36M/I, I54V/M, V82S): 496 nM; EC50 ([1]; Human immunodeficiency virus 1, Patient No. 224, Day -6, baseline): 29 nM; EC50 ([1]; Human immunodeficiency virus 1, Patient No. 235, Day 167, I54I/V, A71V, V82A. L90L/M): 66 nM; EC50 ([1]; Human immunodeficiency virus 1, Patient No. 235, Day -1, baseline): 10 nM; EC50 ([1]; Human immunodeficiency virus 1, Patient No. 313, Day 57, M36M/I, V82F): 64 nM; EC50 ([1]; Human immunodeficiency virus 1, Patient No. 313, Day 85, M36M/I, I54I/V, V82S/F/A/T): 274 nM; EC50 ([1]; Human immunodeficiency virus 1, Patient No. 410, Day 57, M36M/I, I54I/V, V82A): 341 nM; EC50 ([1]; Human immunodeficiency virus 1, Patient No. 410, Day 85, M36I, I54V, V82A): 545 nM; EC50 ([2]; Human immunodeficiency virus 1, NL43, Virus NL4-3): 98 nM; EC50 ([2]; Human immunodeficiency virus 1, Virus P7): 221 nM; EC50 ([2]; Human immunodeficiency virus 1, Virus P11): 478 nM; EC50 ([2]; Human immunodeficiency virus 1, Virus P14): 1740 nM; EC50 ([2]; Human immunodeficiency virus 1, Virus P17): 2090 nM; cross-resistance (fold) ([2]; passaged virus P14, P17): 18-20 fold; EC50 ([3]; Human immunodeficiency virus 1, HXB2, Virus Clone Wild Type (HXB2), 0% Human Serum): 64 nM; EC50 ([3]; Human immunodeficiency virus 1, HXB2, Virus Clone Wild Type (HXB2), 50% Human Serum): 1050 nM; EC50 ([3]; Human immunodeficiency virus 1, Virus Clone E35D, M36I, I54V, A71V, V82T, 0% Human Serum): 1170 nM; EC50 ([3]; Human immunodeficiency virus 1, Virus Clone E35D, M36I, I54V, A71V, V82T, 50% Human Serum): 21900 nM; EC50 ([3]; Human immunodeficiency virus 1, Virus Clone G48V, 0% Human Serum): 111 nM; EC50 ([3]; Human immunodeficiency virus 1, Virus Clone G48V, 50% Human Serum): 1710 nM; EC50 ([3]; Human immunodeficiency virus 1, Virus Clone I54V, V82T, 0% Human Serum): 613 nM; EC50 ([3]; Human immunodeficiency virus 1, Virus Clone I54V, V82T, 50% Human Serum): 16700 nM; EC50 ([3]; Human immunodeficiency virus 1, Virus Clone I84V, 0% Human Serum): 141 nM; EC50 ([3]; Human immunodeficiency virus 1, Virus Clone I84V, 50% Human Serum): 2720 nM; EC50 ([3]; Human immunodeficiency virus 1, Virus Clone K20R, E35D, M36I, I54V, A71V, V82T, 0% Human Serum): 1420 nM; EC50 ([3]; Human immunodeficiency virus 1, Virus Clone K20R, E35D, M36I, I54V, A71V, V82T, 50% Human Serum): 16000 nM; EC50 ([3]; Human immunodeficiency virus 1, Virus Clone L90M, 0% Human Serum): 93 nM; EC50 ([3]; Human immunodeficiency virus 1, Virus Clone L90M, 50% Human Serum): 2280 nM; EC50 ([3]; Human immunodeficiency virus 1, Virus Clone V82A, 0% Human Serum): 144 nM; EC50 ([3]; Human immunodeficiency virus 1, Virus Clone V82A, 50% Human Serum): 4080 nM; EC50 ([3]; Human immunodeficiency virus 1, Virus Clone V82F, 0% Human Serum): 146 nM; EC50 ([3]; Human immunodeficiency virus 1, Virus Clone V82F, 50% Human Serum): 3600 nM; EC50 ([3]; Human immunodeficiency virus 1, Virus Clone V82S, 0% Human Serum): 304 nM; EC50 ([3]; Human immunodeficiency virus 1, Virus Clone V82S, 50% Human Serum): 9220 nM; EC50 ([3]; Human immunodeficiency virus 1, Virus Clone V82T, 0% Human Serum): 146 nM; EC50 ([3]; Human immunodeficiency virus 1, Virus Clone V82T, 50% Human Serum): 5640 nM; EC50 ([3]; Human immunodeficiency virus 1, Virus Clone Wild Type (pNL4-3), 0% Human Serum): 71 nM; EC50 ([3]; Human immunodeficiency virus 1, Virus Clone Wild Type (pNL4-3), 50% Human Serum): 1400 nM
